Laboratory results reported in ChEMBL document CHEMBL4152249, “Alkoxyphenylthiazoles with broad-spectrum activity against multidrug-resistant gram-positive bacterial pathogens” (Eur J Med Chem, 2018).
Values after ≈ are worked out from the molar mass of the structure shown.

Tests used:
Staphylococcus aureus [1] = assay: Bactericidal activity against Staphylococcus aureus USA400 assessed as reduction in colony forming unit at 3 times MIC treated for 4 hrs followed by re-plating on tryptic soy agar plates at 37 degC for 18 to 20 hrs by broth microdilution assay; format: functional; parameters: scale not given: the % may be the effect or the level left
Listeria monocytogenes [2] = assay: Antibacterial activity against Listeria monocytogenes ATCC 19111 after 20 hrs by broth microdilution assay; format: functional; conditions: ATCC 19111, 20 h
[3] = Selectivity index, ratio of compound effect for human Caco2 cells at maximum non-toxic concentration concentration to MIC for methicillin-resistant Streptococcus pneumoniae ATCC 700677; format: toxicity; conditions: Caco-2 cells, read-out: Selectivity Index
Streptococcus pneumoniae [4] = assay: Bactericidal activity against cephalosporin-resistant Streptococcus pneumoniae ATCC 51916 incubated for 20 hrs followed by re-plating on tryptic soy agar plates at 37 degC for 18 hrs by broth microdilution assay; format: functional
[5] = test system: Staphylococcus epidermidis; assay: Bactericidal activity against methicillin-resistant Staphylococcus epidermidis NRS101 incubated for 20 hrs followed by re-plating on tryptic soy agar plates at 37 degC for 18 hrs by broth microdilution assay; format: functional
[6] = test system: Staphylococcus epidermidis; assay: Antibacterial activity against methicillin-resistant Staphylococcus epidermidis NRS101 after 20 hrs by broth microdilution assay; format: functional; conditions: NRS101, 20 h
Staphylococcus aureus [7] = assay: Antibacterial activity against vancomycin-resistant Staphylococcus aureus VRSA12 after 20 hrs by broth microdilution assay; format: functional; conditions: VRSA12, 20 h
Streptococcus pneumoniae [8] = assay: Bactericidal activity against methicillin-resistant Streptococcus pneumoniae ATCC 700677 incubated for 20 hrs followed by re-plating on tryptic soy agar plates at 37 degC for 18 hrs by broth microdilution assay; format: functional
Streptococcus pneumoniae [9] = assay: Antibacterial activity against cephalosporin-resistant Streptococcus pneumoniae ATCC 51916 after 20 hrs by broth microdilution assay; format: functional; conditions: ATCC 51916, 20 h
Staphylococcus aureus [10] = assay: Bactericidal activity against Staphylococcus aureus USA400 NRS123 incubated for 20 hrs followed by re-plating on tryptic soy agar plates at 37 degC for 18 hrs by broth microdilution assay; format: functional
Enterococcus faecium [11] = assay: Bactericidal activity against vancomycin-resistant Enterococcus faecium ATCC 700221 incubated for 20 hrs followed by re-plating on tryptic soy agar plates at 37 degC for 18 hrs by broth microdilution assay; format: functional
Staphylococcus aureus [12] = assay: Antibacterial activity against vancomycin-resistant Staphylococcus aureus VRSA10 after 20 hrs by broth microdilution assay; format: functional; conditions: VRSA10, 20 h
[13] = Selectivity index, ratio of compound effect for human Caco2 cells at maximum non-toxic concentration concentration to MIC for cephalosporin-resistant Streptococcus pneumoniae ATCC 51916; format: toxicity; conditions: Caco-2 cells, read-out: Selectivity Index
Staphylococcus aureus [14] = assay: Antibacterial activity against methicillin-resistant Staphylococcus aureus 2658 RCMB after 20 hrs by broth microdilution assay; format: functional
Staphylococcus aureus [15] = assay: Bactericidal activity against methicillin-resistant Staphylococcus aureus NRS386 incubated for 20 hrs followed by re-plating on tryptic soy agar plates at 37 degC for 18 hrs by broth microdilution assay; format: functional
Staphylococcus aureus [16] = assay: Antibacterial activity against Staphylococcus aureus after 20 hrs by broth microdilution assay; format: functional
Streptococcus pneumoniae [17] = assay: Antibacterial activity against methicillin-resistant Streptococcus pneumoniae ATCC 700677 after 20 hrs by broth microdilution assay; format: functional; conditions: ATCC 700677, 20 h
Listeria monocytogenes [18] = assay: Ratio of MBC to MIC for Listeria monocytogenes ATCC 19111; format: functional
Staphylococcus aureus [19] = assay: Bactericidal activity against methicillin-resistant Staphylococcus aureus NRS385 incubated for 20 hrs followed by re-plating on tryptic soy agar plates at 37 degC for 18 hrs by broth microdilution assay; format: functional
Enterococcus faecalis [20] = assay: Bactericidal activity against vancomycin-resistant Enterococcus faecalis ATCC 51299 incubated for 20 hrs followed by re-plating on tryptic soy agar plates at 37 degC for 18 hrs by broth microdilution assay; format: functional
[21] = Selectivity index, ratio of compound effect for human Caco2 cells at maximum non-toxic concentration concentration to MIC for methicillin-resistant Staphylococcus epidermidis NRS101; format: toxicity; conditions: Caco-2 cells, read-out: Selectivity Index
Staphylococcus aureus [22] = assay: Bactericidal activity against methicillin-sensitive Staphylococcus aureus NRS107 incubated for 20 hrs followed by re-plating on tryptic soy agar plates at 37 degC for 18 hrs by broth microdilution assay; format: functional
[23] = Selectivity index, ratio of compound effect for human Caco2 cells at maximum non-toxic concentration concentration to MIC for Listeria monocytogenes ATCC 19111; format: toxicity; conditions: Caco-2 cells, read-out: Selectivity Index
Staphylococcus aureus [24] = assay: Bactericidal activity against Staphylococcus aureus USA400 assessed as reduction in colony forming unit at 6 times MIC treated for 2 hrs followed by re-plating on tryptic soy agar plates at 37 degC for 18 to 20 hrs by broth microdilution assay; format: functional; parameters: scale not given: the % may be the effect or the level left
Staphylococcus aureus [25] = assay: Bactericidal activity against vancomycin-resistant Staphylococcus aureus VRSA12 incubated for 20 hrs followed by re-plating on tryptic soy agar plates at 37 degC for 18 hrs by broth microdilution assay; format: functional
[26] = Selectivity index, ratio of compound effect for human Caco2 cells at maximum non-toxic concentration concentration to MIC for vancomycin-resistant Enterococcus faecium ATCC 700221; format: toxicity; conditions: Caco-2 cells, read-out: Selectivity Index
Listeria monocytogenes [27] = assay: Bactericidal activity against Listeria monocytogenes ATCC 19111 incubated for 20 hrs followed by re-plating on tryptic soy agar plates at 37 degC for 18 hrs by broth microdilution assay; format: functional
Staphylococcus aureus [28] = assay: Bactericidal activity against vancomycin-resistant Staphylococcus aureus VRSA10 incubated for 20 hrs followed by re-plating on tryptic soy agar plates at 37 degC for 18 hrs by broth microdilution assay; format: functional
Staphylococcus aureus [29] = assay: Antibacterial activity against methicillin-resistant Staphylococcus aureus after 20 hrs by broth microdilution assay; format: functional
Staphylococcus aureus [30] = assay: Antibacterial activity against methicillin-resistant Staphylococcus aureus NRS385 after 20 hrs by broth microdilution assay; format: functional; conditions: NRS385, 20 h
Staphylococcus aureus [31] = assay: Antibacterial activity against methicillin-resistant Staphylococcus aureus USA400 NRS123 assessed as ratio of MIC after and before 14 passages over 2 weeks by broth microdilution method; format: functional
Staphylococcus aureus [32] = assay: Antibacterial activity against methicillin-resistant Staphylococcus aureus NRS386 after 20 hrs by broth microdilution assay; format: functional; conditions: NRS386, 20 h
Enterococcus faecalis [33] = assay: Antibacterial activity against vancomycin-resistant Enterococcus faecalis ATCC 51299 after 20 hrs by broth microdilution assay; format: functional; conditions: ATCC 51299, 20 h
Staphylococcus aureus [34] = assay: Bactericidal activity against Staphylococcus aureus USA300 NRS384 incubated for 20 hrs followed by re-plating on tryptic soy agar plates at 37 degC for 18 hrs by broth microdilution assay; format: functional
Enterococcus faecalis [35] = assay: Ratio of MBC to MIC for vancomycin-resistant Enterococcus faecalis ATCC 51299; format: functional
Caco-2 = assay: Cytotoxicity against human Caco2 cells assessed as effect on cell viability up to 64 ug/ml after 2 hrs by MTS assay; format: cell-based; conditions: caco-2, 2 h
Enterococcus faecium [36] = assay: Antibacterial activity against vancomycin-resistant Enterococcus faecium ATCC 700221 after 20 hrs by broth microdilution assay; format: functional; conditions: ATCC 700221, 20 h
[37] = Selectivity index, ratio of compound effect for human Caco2 cells at maximum non-toxic concentration concentration to MIC for vancomycin-resistant Enterococcus faecalis ATCC 51299; format: toxicity; conditions: Caco-2 cells, read-out: Selectivity Index
Staphylococcus aureus [38] = assay: Bactericidal activity against linezolid-resistant Staphylococcus aureus NRS119 incubated for 20 hrs followed by re-plating on tryptic soy agar plates at 37 degC for 18 hrs by broth microdilution assay; format: functional

Structure (SMILES): CCCCCCCOc1ccc(-c2nc(C)c(-c3ccnc(NC(=N)N4CCN(C)CC4)n3)s2)cc1
- Activity (Staphylococcus aureus [1]): 100%
- MIC (Listeria monocytogenes [2]): 4 µg/mL (≈ 7.88 µM)
- selectivity ratio [3]: 7 to 82
- MBC (Streptococcus pneumoniae [4]): 16 µg/mL (≈ 31.5 µM)
- MBC [5]: 8 µg/mL (≈ 15.8 µM)
- MIC [6]: 8 µg/mL (≈ 15.8 µM)
- MIC (Staphylococcus aureus [7]): 8 µg/mL (≈ 15.8 µM)
- MBC (Streptococcus pneumoniae [8]): 16 µg/mL (≈ 31.5 µM)
- MIC (Streptococcus pneumoniae [9]): 16 µg/mL (≈ 31.5 µM)
- MBC (Staphylococcus aureus [10]): 8 µg/mL (≈ 15.8 µM)
- MBC (Enterococcus faecium [11]): 8 µg/mL (≈ 15.8 µM)
- MIC (Staphylococcus aureus [12]): 8 µg/mL (≈ 15.8 µM)
- selectivity ratio [13]: 7 to 82
- MIC (Staphylococcus aureus [14]): 0.78 µg/mL (≈ 1.54 µM)
- MBC (Staphylococcus aureus [15]): 8 µg/mL (≈ 15.8 µM)
- MIC (Staphylococcus aureus [16]): 8 µg/mL (≈ 15.8 µM)
- MIC (Streptococcus pneumoniae [17]): 16 µg/mL (≈ 31.5 µM)
- Ratio (Listeria monocytogenes [18]): 1
- MBC (Staphylococcus aureus [19]): 8 µg/mL (≈ 15.8 µM)
- MBC (Enterococcus faecalis [20]): 16 µg/mL (≈ 31.5 µM)
- selectivity ratio [21]: 7 to 82
- MBC (Staphylococcus aureus [22]): 8 µg/mL (≈ 15.8 µM)
- selectivity ratio [23]: 7 to 82
- Activity (Staphylococcus aureus [24]): 100%
- MBC (Staphylococcus aureus [25]): 8 µg/mL (≈ 15.8 µM)
- selectivity ratio [26]: 7 to 82
- MBC (Listeria monocytogenes [27]): 8 µg/mL (≈ 15.8 µM)
- MBC (Staphylococcus aureus [28]): 8 µg/mL (≈ 15.8 µM)
- MIC (Staphylococcus aureus [29]): 8 µg/mL (≈ 15.8 µM)
- MIC (Staphylococcus aureus [30]): 8 µg/mL (≈ 15.8 µM)
- Ratio (Staphylococcus aureus [31]): 1
- MIC (Staphylococcus aureus [32]): 8 µg/mL (≈ 15.8 µM)
- MIC (Enterococcus faecalis [33]): 8 µg/mL (≈ 15.8 µM)
- MBC (Staphylococcus aureus [34]): 8 µg/mL (≈ 15.8 µM)
- Ratio (Enterococcus faecalis [35]): 1
- Activity (Caco-2): Non-Toxic
- MIC (Enterococcus faecium [36]): 8 µg/mL (≈ 15.8 µM)
- selectivity ratio [37]: 7 to 82
- MBC (Staphylococcus aureus [38]): 8 µg/mL (≈ 15.8 µM)
